Data as given in US6660768B2, “Parasiticidal compositions and methods of use” (Schering-Plough Animal Health Corporation, priority 2001, dated 2003).

How the values were obtained:
[1] = Example 3B: solubility of permethrin in PM (propylene glycol monomethyl ether), DM (diethylene glycol monomethyl ether) and PM or DPM (dipropylene glycol monomethyl ether)/d-limonene mixtures at low temperatures, seeded
Experimental: (§1) These solutions were poured into 100 mL tubes with screw top caps. These tubes were placed in the cold water bath and allowed to come to equilibrium at the temperature of the bath. […] The seeded preparations were then thoroughly shaken, replaced in the bath and allowed to remain in the bath for a 24 hour period. The preparations were then examined for crystallization, then again thoroughly agitated and replaced in the bath for an additional time period. Samples of the supernatant were removed after additional crystallization had occurred.
The solvent mixtures tested were: dipropylene glycol monomethyl ether/d-limonene and propylene glycol monomethyl ether/d-limonene.
These solvent mixtures were evaluated at ratios of 2:1, 1:1, 1:2, and then at 8:2 and 9:1 (the first number refers to one of the glycol ethers, the second number refers to d-limonene).

[2] = Example 3A: relative solubility of permethrin in neat solvents, seeded solutions in cold bath, supernatant assayed
Experimental: as §1
After 24 hours the tubes were examined for the relative amount of crystallization that may have occurred in each of the solutions. Where crystallization had occurred, samples of the supernatant were pulled from the vials and the temperature of the bath was lowered to 15° C.
Samples were again taken for assay from the solutions of hexylene glycol and methyl Carbitol® (diethylene glycol monomethyl ether).

[3] = Example 3D: solubility of permethrin in propylene glycol monomethyl ether at 20° C. after crystallization at 0° C.; type: physicochemical
Experimental: The solution was placed in the bath, and continually stirred. The bath temperature was lowered to 0° C. After crystallization occurred in the solution, the bath temperature setting was raised to 20° C. and the stirred slurry was allowed to equilibrate over a three-day period. After this time, samples of the supernatant were pulled on consecutive days. The crystals were separated from the liquid layer by filtration, and the crystals were washed with petroleum ether. […] The crystals were washed to remove any residual solution that might contaminant their analysis.

[4] = Example 3C: solubility of 30% permethrin in d-limonene/propylene glycol monomethyl ether mixtures at -15° C.; type: physicochemical; details: initial 30% permethrin
Experimental: The temperature was regulated to −15° C. The solutions were placed in the bath and allowed to crystallize and reach equilibrium.

[5] = Diethylene Glycol Monomethyl Ether, Initial
[6] = Dipropylene Glycol Monomethyl Ether, Initial
[7] = Propylene Glycol Monomethyl Ether, Initial

**Q.** With `CC1(C)C(C=C(Cl)Cl)C1C(=O)OCc1cccc(Oc2ccccc2)c1` (stereo not drawn) [permethrin] as the molecule, how does the “% permethrin remaining in solution” value ([1]; DM, 10° C., Original % permethrin 60) read?
**A.** The value was 56.17%.

**Q.** What about the “% permethrin remaining in solution” value ([1]; DM, 20° C., Original % permethrin 50) of the same molecule?
**A.** The value was 50.55%.

**Q.** What about the “% permethrin remaining in solution” value ([1]; DM, 20° C., Original % permethrin 55) of the same molecule?
**A.** The value was 55.14%.

**Q.** And the “% permethrin remaining in solution” value ([1]; DM, 20° C., Original % permethrin 60)?
**A.** Its value is 60.05%.

**Q.** What about the “% permethrin remaining in solution” value ([1]; DM, 20° C., Original % permethrin 65) of the same molecule?
**A.** The value was 64.85%.

**Q.** And the “% permethrin remaining in solution” value ([1]; DM, 20° C., Original % permethrin 75)?
**A.** Its value is 74.20%.

**Q.** What about the “% permethrin remaining in solution” value ([1]; DM, 25° C., Original % permethrin 50) of the same molecule?
**A.** Its value is 49.43%.

**Q.** And the “% permethrin remaining in solution” value ([1]; DM, 25° C., Original % permethrin 55)?
**A.** The value was 53.98%.

**Q.** And the “% permethrin remaining in solution” value ([1]; DM, 25° C., Original % permethrin 60)?
**A.** Its value is 61.10%.

**Q.** And the “% permethrin remaining in solution” value ([1]; DM, 25° C., Original % permethrin 65)?
**A.** Its value is 64.25%.

**Q.** And the “% permethrin remaining in solution” value ([1]; DM, 25° C., Original % permethrin 75)?
**A.** Its value is 74.53%.

**Q.** What about the “% permethrin remaining in solution” value ([1]; PM, 5° C., Original % permethrin 50) of the same molecule?
**A.** The value was 46.61%.

**Q.** And the “% permethrin remaining in solution” value ([1]; PM, 5° C., Original % permethrin 55)?
**A.** Its value is 52.71%.

**Q.** And the “% permethrin remaining in solution” value ([1]; PM, 5° C., Original % permethrin 60)?
**A.** The value was 56.69%.

**Q.** What about the “% permethrin remaining in solution” value ([1]; PM, 5° C., Original % permethrin 65) of the same molecule?
**A.** The value was 61.50%.

**Q.** And the “% permethrin remaining in solution” value ([1]; PM, 5° C., Original % permethrin 75)?
**A.** The value was 70.89%.

**Q.** And the “% permethrin remaining in solution” value ([1]; PM, 10° C., Original % permethrin 60)?
**A.** The value was 59.08%.

**Q.** And the “% permethrin remaining in solution” value ([1]; PM, 10° C., Original % permethrin 65)?
**A.** Its value is 61.63%.

**Q.** And the “% permethrin remaining in solution” value ([1]; PM, 10° C., Original % permethrin 75)?
**A.** The value was 72.22%.

**Q.** And the “% permethrin remaining in solution” value ([1]; PM, 20° C., Original % permethrin 50)?
**A.** Its value is 50.60%.

**Q.** What about the “% permethrin remaining in solution” value ([1]; PM, 20° C., Original % permethrin 55) of the same molecule?
**A.** Its value is 55.54%.

**Q.** And the “% permethrin remaining in solution” value ([1]; PM, 20° C., Original % permethrin 60)?
**A.** The value was 61.27%.

**Q.** What about the “% permethrin remaining in solution” value ([1]; PM, 20° C., Original % permethrin 65) of the same molecule?
**A.** Its value is 66.25%.

**Q.** And the “% permethrin remaining in solution” value ([1]; PM, 20° C., Original % permethrin 75)?
**A.** Its value is 76.84%.

**Q.** And the “% permethrin remaining in solution” value ([1]; PM, 25° C., Original % permethrin 50)?
**A.** The value was 51.28%.

**Q.** What about the “% permethrin remaining in solution” value ([1]; PM, 25° C., Original % permethrin 55) of the same molecule?
**A.** Its value is 56.19%.

**Q.** What about the “% permethrin remaining in solution” value ([1]; PM, 25° C., Original % permethrin 60) of the same molecule?
**A.** Its value is 60.99%.

**Q.** And the “% permethrin remaining in solution” value ([1]; PM, 25° C., Original % permethrin 65)?
**A.** The value was 66.71%.

**Q.** What about the “% permethrin remaining in solution” value ([1]; PM, 25° C., Original % permethrin 75) of the same molecule?
**A.** Its value is 75.82%.

**Q.** And the Permethrin ([2]; Diethylene Glycol Monomethyl Ether, 20° C.)?
**A.** Its Permethrin is 75.02%.

**Q.** And the Permethrin ([2]; Diethylene Glycol Monomethyl Ether, 25° C.)?
**A.** The Permethrin was 74.90%.

**Q.** What about the “Cis Isomer” value [2, 5] of the same molecule?
**A.** Its value is 28.79%.

**Q.** What about the Permethrin [2, 5] of the same molecule?
**A.** Its Permethrin is 69.70%.

**Q.** What about the “Trans Isomer” value [2, 5] of the same molecule?
**A.** The value was 40.91%.

**Q.** And the Permethrin ([2]; Diethylene Glycol Monomethyl Ether, […] C.)?
**A.** Its Permethrin is 74.44%.

**Q.** And the Permethrin ([2]; Dipropylene Glycol Monomethyl Ether, 15° C.)?
**A.** The Permethrin was 73.83%.

**Q.** What about the Permethrin ([2]; Dipropylene Glycol Monomethyl Ether, 20° C.) of the same molecule?
**A.** The Permethrin was 75.15%.

**Q.** What about the Permethrin ([2]; Dipropylene Glycol Monomethyl Ether, 25° C.) of the same molecule?
**A.** The Permethrin was 75.39%.

**Q.** And the “Cis Isomer” value [2, 6]?
**A.** Its value is 29.41%.

**Q.** What about the Permethrin [2, 6] of the same molecule?
**A.** Its Permethrin is 70.35%.

**Q.** And the “Trans Isomer” value [2, 6]?
**A.** The value was 40.94%.

**Q.** What about the “solubility among the tested solvents” value ([2]; Examples 3A-3D, low temperatures, order: d-limonene, PM, DPM, diethylene glycol monomethyl ether, hexylene glycol) of the same molecule?
**A.** Its value is “greatest solubility in d-limonene”.

**Q.** What about the Permethrin ([2]; Hexylene Glycol, 25° C.) of the same molecule?
**A.** Its Permethrin is 75.02%.

**Q.** And the “Cis Isomer” value ([2]; Hexylene Glycol, Initial)?
**A.** The value was 29.77%.

**Q.** And the Permethrin ([2]; Hexylene Glycol, Initial)?
**A.** Its Permethrin is 71.09%.

**Q.** And the “Trans Isomer” value ([2]; Hexylene Glycol, Initial)?
**A.** The value was 41.32%.

**Q.** And the Permethrin ([2]; Hexylene Glycol, […] C.)?
**A.** Its Permethrin is 74.37%.

**Q.** And the Permethrin ([2]; Propylene Glycol Monomethyl Ether, 15° C.)?
**A.** Its Permethrin is 74.85%.

**Q.** What about the Permethrin ([2]; Propylene Glycol Monomethyl Ether, 20° C.) of the same molecule?
**A.** The Permethrin was 74.84%.

**Q.** What about the Permethrin ([2]; Propylene Glycol Monomethyl Ether, 25° C.) of the same molecule?
**A.** The Permethrin was 75.66%.

**Q.** What about the “Cis Isomer” value [2, 7] of the same molecule?
**A.** The value was 29.55%.

**Q.** What about the Permethrin [2, 7] of the same molecule?
**A.** The Permethrin was 70.78%.

**Q.** What about the “Trans Isomer” value [2, 7] of the same molecule?
**A.** The value was 40.22%.

**Q.** What about the Permethrin ([2]; d-limonene, 20° C.) of the same molecule?
**A.** Its Permethrin is 74.84%.

**Q.** What about the Permethrin ([2]; d-limonene, 25° C.) of the same molecule?
**A.** The Permethrin was 75.29%.

**Q.** And the “Cis Isomer” value ([2]; d-limonene, Initial)?
**A.** The value was 29.54%.

**Q.** And the Permethrin ([2]; d-limonene, Initial)?
**A.** Its Permethrin is 70.43%.

**Q.** And the “Trans Isomer” value ([2]; d-limonene, Initial)?
**A.** Its value is 40.89%.

**Q.** What about the “% Permethrin” value ([3]; Assay of Crystals (filtered, washed), as the cis isomer) of the same molecule?
**A.** The value was 100% as the cis isomer.

**Q.** And the “% Permethrin” value ([3]; Initial Assay of 70% Solution in propylene glycol monomethyl ether)?
**A.** The value was 72.86%.

**Q.** What about the solubility of permethrin ([3]; in propylene glycol monomethyl ether, 20° C.) of the same molecule?
**A.** The solubility of permethrin was “greater than 70%”.

**Q.** And the “% Permethrin” value ([3]; supernatant, propylene glycol monomethyl ether, 20° C., 2nd Day after Equilibrium Reached)?
**A.** The value was 72.96%.

**Q.** What about the “% Permethrin” value ([3]; supernatant, propylene glycol monomethyl ether, 20° C., Assay after Equilibrium Reached) of the same molecule?
**A.** The value was 72.93%.

**Q.** What about the “% permethrin in solution” value ([4]; 0% d-limonene in formula) of the same molecule?
**A.** Its value is 23.57%.

**Q.** What about the “% permethrin in solution” value ([4]; 20% d-limonene in formula) of the same molecule?
**A.** Its value is 24.78%.

**Q.** What about the “% permethrin in solution” value ([4]; 33% d-limonene in formula) of the same molecule?
**A.** Its value is 25.52%.

**Q.** And the “% permethrin in solution” value ([4]; 50% d-limonene in formula)?
**A.** Its value is 27.20%.

**Q.** What about the “% permethrin in solution” value ([4]; 67% d-limonene in formula) of the same molecule?
**A.** Its value is 27.51%.

**Q.** What about the “% permethrin in solution” value ([4]; 100% d-limonene in formula) of the same molecule?
**A.** The value was 25.93%.
